This is an account of results in US12673945B2, “3-((8-((1H-pyrazol-4-yl)amino)imidazo[1,2-a]pyridin-3-yl)ethinyl)-n-phenylbenzamide derivative, method for preparing same, and pharmaceutical composition containing same as active ingredient for prevention or treatment of cancer” (DAEGU-GYEONGBUK MEDICAL INNOVATION FOUNDATION, priority 2020, dated 2026).

Molecules are shown by their SMILES.

One data set deals with T1, CDC2L5 (Homo sapiens, UniProt Q14004).
T1 construct: purchased DiscoverX scanMAX Kinase panel
Put plainly: scanMAX Kinase panel (DiscoverX). In kind it is binding. The procedure:
Among the example compounds of the present invention, the enzyme (kinase) selectivity of the selected compounds of Examples 1 and 4 was measured by requesting DiscoverX. At this time, the experiment was performed using a panel for scanMAX™ Kinase. The concentration of the drug treated to the enzyme was 1 μM in DMSO, and the percentage control (% control) was determined by the method shown in Equation 1 below. (Example Compound−Positive Control)/(Negative Control−Positive control)×100 [Equation 1]
In addition, if the enzyme selectivity of the compound of the present invention was less than the percentage control of 35% (<35%) for each enzyme, it was judged to have activity for the enzyme.

A further data set has as its system KOPM28 cells. Put plainly: human CML cell proliferation inhibition. In kind it is cell-based. The settings on record: 72 hours, Cell Counting Kit-8. The procedure, abridged: (§1)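 Here GI50 reflects CCK-8 absorbance (450 nm) after a 72 h compound exposure, calculated relative to vehicle wells. Compound was tested up to a final 10 μM. The parental lines carry Bcr-Abl, the T315I lines carry the T315I gatekeeper mutant.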
For orientation: Tetrazolium assays rely on reduction of a dye to a coloured formazan, in cell work by metabolically active cells.

The subject of another data set is TCCS cells. The data set is described as follows: human CML cell proliferation inhibition. The format is cell-based. To be noted: 72 hours, Cell Counting Kit-8. The procedure, abridged:
as §1

For the next data set, the system named is T315I-KOPM28 cells. The data set is described as follows: human CML cell proliferation inhibition. The format is cell-based. To be noted: 72 hours, Cell Counting Kit-8. The procedure, abridged: as §1
Another data set deals with T315I-TCCS cells. Put plainly: human CML cell proliferation inhibition. The format is cell-based. To be noted: 72 hours, Cell Counting Kit-8. The procedure, abridged:
as §1

Data set [1] has as its system Luc_Ba/F3 T315I-Bcr-Abl cell line. Put plainly: in vivo pharmacological activity, blood cancer mouse model. Further details: species or system nude mice. The settings on record: for day after the administration on which all subjects died (FIG. 3): vehicle group: day 21. The procedure: After the mice were adapted to an animal facility for 1 week, the Luc_Ba/F3 T315I-Bcr-Abl cell line emitting luciferase was transplanted into the caudal vein at the density of 5×10^6/animal. Group separation was performed 3 days after the cell line transplantation. On the day of the group separation, 10 mice were randomly assigned to each group of 5 groups so that the luminescence values were equal after luminescence measurement using IVIS spectrum-CT optical imaging equipment.
In addition, the body weight and survival rate of each experimental group were monitored.
Statistical analysis was performed using GraphPad Prism 8, and the statistical significance of the survival rate was confirmed using unpaired t test and log-rank (Mantel-Cox) test.

Data set [2] can be described thus: oral pharmacokinetic test. In kind it is in vivo, SD rats. The settings on record: SD, plasma; rat, 10 mg/Kg PO, vehicle A (NMP:PEG400=5:95). As for the experimental part:
To evaluate the pharmacokinetic properties in vivo, oral pharmacokinetic test was performed with the compounds of Comparative Examples 1 and 4 and Examples 1 and 4 using mice and rats, and the PK parameters are shown in Table 10.
ICR mice (6-7 weeks old) and SD rats (6-7 weeks old) were used for the test. The fasted group was fasted about 16 hours before oral administration, and the fed group was fasted about 4 hours before oral administration. The test drug for oral administration was used by dissolving the drug in a vehicle at a concentration of 1 mg/mL for use, and blood samples were collected (time point: 0.25, 0.5, 1, 2, 4, 8, 12, 24, 32, n=3) from the heart (mouse, 500 μL/time point) or jugular vein (rat, 120 μL/time point). Blood was centrifuged at 12,000 G at 4° C. for 2 minutes to separate plasma, and stored at −80° C. until analysis. • Vehicle A (NMP:PEG400=5:95) • Vehicle B (0.5% methyl cellulose) 6-2. Sampling and Pretreatment
To 20 μl of plasma, 180 μl of acetonitrile (including internal standard) was added. The mixture was vortexed and centrifuged for 5 minutes at 15,000 rpm at 4° C. The supernatant obtained after centrifugation was analyzed by LC-MS/MS.
PK parameters were calculated with a non-compartmental analysis model using Phoenix WinNonlin 6.4 version (Pharsight, USA) program.

T1 sequence (Q14004 whole entry): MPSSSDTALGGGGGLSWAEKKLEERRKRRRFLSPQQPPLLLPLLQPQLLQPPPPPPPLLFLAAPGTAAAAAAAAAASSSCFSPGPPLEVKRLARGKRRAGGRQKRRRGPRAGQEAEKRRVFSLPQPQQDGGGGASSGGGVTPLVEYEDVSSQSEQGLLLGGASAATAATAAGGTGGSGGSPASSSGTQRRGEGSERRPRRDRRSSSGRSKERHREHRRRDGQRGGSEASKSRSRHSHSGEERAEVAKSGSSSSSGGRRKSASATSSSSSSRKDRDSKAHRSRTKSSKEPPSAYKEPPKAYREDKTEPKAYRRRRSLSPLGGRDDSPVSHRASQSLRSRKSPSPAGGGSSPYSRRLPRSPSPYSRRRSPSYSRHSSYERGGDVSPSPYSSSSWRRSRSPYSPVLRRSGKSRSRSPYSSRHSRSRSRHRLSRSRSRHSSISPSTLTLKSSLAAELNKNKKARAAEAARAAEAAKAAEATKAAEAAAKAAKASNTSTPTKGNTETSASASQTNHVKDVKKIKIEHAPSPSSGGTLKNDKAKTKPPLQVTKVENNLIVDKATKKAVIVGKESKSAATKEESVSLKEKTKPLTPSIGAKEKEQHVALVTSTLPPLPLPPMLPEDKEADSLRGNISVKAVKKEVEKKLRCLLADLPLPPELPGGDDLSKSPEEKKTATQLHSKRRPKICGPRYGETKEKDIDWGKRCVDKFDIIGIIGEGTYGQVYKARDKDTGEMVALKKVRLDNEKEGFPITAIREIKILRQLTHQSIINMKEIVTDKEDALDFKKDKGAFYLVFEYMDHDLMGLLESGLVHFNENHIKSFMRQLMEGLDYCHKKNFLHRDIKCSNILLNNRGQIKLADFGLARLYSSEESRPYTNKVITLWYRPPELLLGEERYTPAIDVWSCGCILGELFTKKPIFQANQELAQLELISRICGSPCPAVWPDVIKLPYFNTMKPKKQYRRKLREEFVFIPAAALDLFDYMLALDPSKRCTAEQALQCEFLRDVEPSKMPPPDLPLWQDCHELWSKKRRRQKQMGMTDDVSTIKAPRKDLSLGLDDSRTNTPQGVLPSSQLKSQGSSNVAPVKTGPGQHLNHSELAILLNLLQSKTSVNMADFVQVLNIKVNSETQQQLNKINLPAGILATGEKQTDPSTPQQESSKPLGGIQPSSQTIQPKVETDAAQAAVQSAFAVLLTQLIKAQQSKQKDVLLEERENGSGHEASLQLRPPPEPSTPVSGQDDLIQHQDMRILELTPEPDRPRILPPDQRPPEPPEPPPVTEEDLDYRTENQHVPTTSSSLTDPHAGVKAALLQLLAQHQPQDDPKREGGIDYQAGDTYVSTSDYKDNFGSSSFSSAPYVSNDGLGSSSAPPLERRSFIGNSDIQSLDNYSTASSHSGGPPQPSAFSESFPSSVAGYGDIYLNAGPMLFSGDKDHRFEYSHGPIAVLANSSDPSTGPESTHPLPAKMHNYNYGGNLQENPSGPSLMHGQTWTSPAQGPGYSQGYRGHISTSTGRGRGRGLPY

By GI50 is commonly meant the concentration giving 50% growth inhibition. As for `Cc1cn(-c2cc(NC(=O)c3cc(C#Cc4cnc5c(Nc6cnn(C)c6)cccn45)c(C)cc3F)cc(C(F)(F)F)c2)cn1` [Example 4, 2-fluoro-4-methyl-N-(3-(4-methyl-1H-imidazol-1-yl)-5-(trifluoromethyl)phenyl)-5-((8-((1-methyl-1H-pyrazol-4-yl)amino)imidazo[1,2-a]pyridin-3-yl)ethynyl)benzamide], the “% Cont @ 1 uM” value at CDC2L5 worked out at 60%. For the same compound, the GI50 is 100 nM in the data set with KOPM28 cells, under 10 nM in the data set with TCCS cells, 100 nM with T315I-KOPM28 cells and 100 nM with T315I-TCCS cells.
By AUC(0-t) is commonly meant the area under the concentration-time curve up to a stated or last time point. Read a low AUC(0-t) as less exposure. Broadly, the Cmax is the peak of the concentration-time curve. As usually defined, the half-life is how long it takes for the measured level to halve. Higher therefore signals slow decline. With `Cc1cn(-c2cc(NC(=O)c3cc(C#Cc4cnc5c(Nc6cnn(C)c6)cccn45)c(C)cc3F)cc(C(C)(C)C#N)c2)cn1` [Example 1, N-(3-(2-cyanopropane-2-yl)-5-(4-methyl-1H-imidazol-1-yl)phenyl)-2-fluoro-4-methyl-5-((8-((1-methyl-1H-pyrazol-4-yl)amino)imidazo[1,2-a]pyridin-3-yl)ethynyl)benzamide], the “day after the administration on which all subjects died (FIG. 3)” value is 31 days in data set [1] (25 mg/kg oral once a day for 10 days), 32 days in data set [1] (50 mg/kg oral once a day for 10 days) and 35 days in data set [1] (100 mg/kg oral once a day for 10 days). The “dose dependence of luminescence signal (FIG. 2)” value in data set [1] (25, 50, 100 mg/kg oral once a day for 10 days) is listed as “decreased dose-dependently”. In data set [1] (all treated groups, oral once a day for 10 days, images days 0, 4, 11, 18), the “luminescence values in optical images compared to the vehicle group (FIG. 1)” value is reported as “weak luminescence values”. Moreover, the “luminescence signals emitted from blood cancer cells compared to the vehicle group (FIG. 2)” value in data set [1] (day 18 after administration, 25, 50, 100 mg/kg oral) is reported as “weak luminescence signals”. On CDC2L5, the “% Cont @ 1 uM” value is given as 21%. The GI50 was under 10 nM with KOPM28 cells, under 10 nM with TCCS cells, 100 nM in the data set on T315I-KOPM28 cells and under 10 nM in the data set on T315I-TCCS cells. The compound further returned an AUC(0-t) in data set [2] of 15900 ng·h/mL. In data set [2], the peak level (Cmax) was 2000 ng/mL. The half-life in data set [2] was 3.3 h.
